Data: article PMC9490042 (iScience, 2022)
Counter-ions that a name gives are not always drawn. Like-named read-outs stand apart in the source and are kept apart here.

Tests used:
Experiment in all cases: steady-state tryptophan fluorescence quenching titration in PBS
Type in all cases: binding
[1] = target: T1, bovine serum albumin (BSA) (Bos taurus, UniProt P02769)
[2] = target: hen egg-white lysozyme (HEWL) (Gallus gallus, UniProt P00698)
[3] = target: T1, bovine serum albumin (BSA); remark: listed apart in the source

T1 sequence (P02769 25-607): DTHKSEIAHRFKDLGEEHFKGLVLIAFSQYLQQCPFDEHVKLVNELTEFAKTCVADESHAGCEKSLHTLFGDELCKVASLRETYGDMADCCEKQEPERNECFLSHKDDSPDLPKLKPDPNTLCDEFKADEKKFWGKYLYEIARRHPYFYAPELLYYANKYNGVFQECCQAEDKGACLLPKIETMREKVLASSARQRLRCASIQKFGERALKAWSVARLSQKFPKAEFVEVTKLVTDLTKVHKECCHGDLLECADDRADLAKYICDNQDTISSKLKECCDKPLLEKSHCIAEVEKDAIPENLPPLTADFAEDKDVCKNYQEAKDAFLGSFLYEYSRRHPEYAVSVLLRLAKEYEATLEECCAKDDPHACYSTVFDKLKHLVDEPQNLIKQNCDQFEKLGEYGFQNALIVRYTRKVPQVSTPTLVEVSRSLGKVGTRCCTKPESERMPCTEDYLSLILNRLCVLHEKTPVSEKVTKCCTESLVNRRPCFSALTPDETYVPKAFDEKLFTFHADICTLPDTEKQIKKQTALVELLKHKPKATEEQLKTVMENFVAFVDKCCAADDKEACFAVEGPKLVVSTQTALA
Sequence of hen egg-white lysozyme (HEWL) (P00698 19-147): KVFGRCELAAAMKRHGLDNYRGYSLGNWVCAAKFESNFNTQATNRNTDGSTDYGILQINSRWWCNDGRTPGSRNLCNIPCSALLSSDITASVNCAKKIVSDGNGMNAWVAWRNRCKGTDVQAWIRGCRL

Row | Kd [1] [µM] | Kd [2] [µM] | Kd [3] [µM] | Compound
1 | 16.5 ± 2.5 |  |  | COc1cccc2c1C(=O)c1c(O)c3c(c(O)c1C2=O)C[C@@](O)(C(=O)CO)C[C@@H]3O[C@H]1C[C@H](N)[C@H](O)[C@H](C)O1 [Doxorubicin]
2 | 4.6 ± 1.1 |  |  | CCN(CC)CCCC(C)Nc1c2ccc(Cl)cc2nc2ccc(OC)cc12 (stereo not shown) [Quinacrine dihydrochloride]
3 |  | 1.7 ± 0.7 | 5.2 ± 1.2 | Cn1cc(C2=C(c3ccc(Cl)cc3Cl)C(=O)NC2=O)c2ccccc21 [SB216763]
